The text below walks through data of US20120329721A1, “MEANS FOR PREVENTING AND TREATING CELLULAR DEATH AND THEIR BIOLOGICAL APPLICATIONS” (CHIESI FARMACEUTICI S.P.A., priority 2003, published 2012).

“Also recorded” adds a separate entry of the source. Where two headings read alike, the source gives them in different places. Residues, ends and D or L forms follow the SMILES beside them. *: point of attachment. Cbz = O=C(OCc1ccccc1)*; CH2F = FC*

For experiment [1], the system named is primary cortical neurons. In kind it is cell-based. The following applies: for survival / protection of SD-neurons against cell death (apoptosis hallmarks overall): 24 hr-SD, inhibitors 100 μM (BA 25 μM, furosemide 2 mM, siRNA 3.8 μg).
Experiment [2] has as its system caspase-3. Description: In cellula caspase-3 like activity (FAM-DEVD-FMK FLICA or anti-cleaved caspase-3 antibody) in SD-neurons. It is filed as cell-based, mouse. The following applies: 24 hr-SD; inhibitors 100 μM (BA 25 μM).
A further experiment has as its system caspase-8. Description: In cellula caspase-8 like activity (FAM-LETD-FMK FLICA) in SD-neurons. It is filed as cell-based, mouse. The conditions noted are these: 24 hr-SD; inhibitors 100 μM.
The next experiment relates to caspase-9. Description: In cellula caspase-9 like activity (FAM-LEHD-FMK FLICA) in SD-neurons. It is filed as cell-based, mouse. The conditions noted are these: 24 hr-SD; inhibitors 100 μM (BA 25 μM). The protocol: Neurons were incubated with 1/150 of the DMSO stock solution of the FLICA for 1 hr at 37° C. 7-AAD and Hoechst were added during the last 15 min. Then neurons were washed three times in washing buffer (CaspaTag™ Kit). […] Cleaved caspase-3 was evidenced in cellula by immunodetection using Phycoerythrin (PE)-conjugated polyclonal antibodies (Beckton Dickinson). Neurons were stained by 7-AAD, trypsinized and fixed in PBS containing 1% PFA and 20 μg/ml Actinomycin D (AD) for 20 min. […] After washings in PBS, PE-related fluorescence was analysed on the cytometer (Fl-2 channel). Z-val-Ala-Asp(OMe)-FMK (Z-VAD-FMK), Quinoline-Val-Asp (OMe)-CH2-O-Ph (Q-VD-OPH), Z-DEVD-FMK ([…], ICN) and Z-LEHD-FMK ([…], all purchased from ICN (Orsay, France), and 4-(2-Aminoethyl)benzenesulfonyl fluoride (AEBSF, Pefabloc SC, Roche, Meylan, France) were added at 100 μM at the initiation of serum deprivation. Sulforhodamine-DEVD-FMK, (CaspaTag™ Red Activity Kit) permitted to detect activated caspase-3 and FITC-Annexin V. Neurons were incubated with 1/900 of the DMSO stock solution of the FLICA, and 1× FITC-annexin V in 200 μl of annexin-buffer for 30 min at 37° C. Then neurons were washed three times in a buffer composed of 50% washing buffer and 50% annexin-buffer. […] For FM, FLICA was excited through the BP515-560 filter and its fluorescence was collected through the LP590 long pass emission filter.
Neurons were loaded with 1 μM JC-1 for 30 min at 37° C. […] JC-1 monomers were detected in the Fl-1 channel by FC. […] Activated caspase-2, -3, -8 and -9 were detected using specific FAM-conjugated peptides (called Fluorochrome Labeled Inhibitor of Caspase, FLICA: CaspaTag™ fluorescein Caspase Activity Kits, Q-Biogen, Illkirch, France; ApoFluor™ Caspase Detection Kits, ICN, Orsay, France): FAM-VDVAD-FMK, FAM-DEVD-FMK, FAM-LETD-FMK and FAM-LEHD-FMK, respectively. Neurons were incubated with FLICAs (1:150, CaspaTag™ or 1:500, ApoFluor™) for 1 hr at 37° C., then washed three times in washing buffer. […] Phosphatidylserine (PS) exposure to the outer leaflet of the plasma membrane was detected through the fixation of FITC conjugated-annexin V (Immunotech).

Experiment [3] has as its target T1, human recombinant caspase-2 (Homo sapiens, UniProt P42575).
T1 construct: purchased BIOMOL
T1 sequence (P42575 170-325 limits assumed): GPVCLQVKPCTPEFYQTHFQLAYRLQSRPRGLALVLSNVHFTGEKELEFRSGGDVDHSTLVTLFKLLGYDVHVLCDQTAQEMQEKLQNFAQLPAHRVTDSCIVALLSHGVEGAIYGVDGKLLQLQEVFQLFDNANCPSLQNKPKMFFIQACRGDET
T1 sequence (P42575 348-452 limits assumed): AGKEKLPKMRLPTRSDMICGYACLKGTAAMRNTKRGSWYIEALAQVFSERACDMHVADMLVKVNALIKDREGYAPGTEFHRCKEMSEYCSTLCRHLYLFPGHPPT
Description: In vitro VDVAD-AMC cleavage by recombinant caspase-2. It is filed as biochemical. The following applies: inhibitor 2 μM, 50 μM VDVAD-AMC, caspase-2 125 U, 30 min at 37° C.
Description: Activity of human recombinant caspase-2 (BIOMOL QuantiZyme™ Assay System) was assessed in 100 μl assay buffer (50 mM HEPES, pH 7.4, 100 mM NaCl, 0.1% CHAPS, 10 mM DTT, 1 mM EDTA, 10% glycerol).

The test system of experiment [4] is Jurkat cells. Description: VP16-induced cell death of Jurkat cells, cytoprotection assay. In kind it is cell-based, human. The following applies: for terminal nuclear alterations and PMP in VP16-treated Jurkat cells / ΔΨm loss in VP16-treated Jurkat cells: VP16 10 μM, 7-8 hrs, inhibitors 50 μM.
In experiment [5] the test system is caspase-2. Description: Caspase-2 activation (FLICA) in VP16-treated Jurkat cells. In kind it is cell-based, human. The following applies: VP16 10 μM, 7 hrs; inhibitors 50 μM.
Experiment [6] concerns caspase-3. Description: Caspase-3 activation (FLICA) in VP16-treated Jurkat cells. In kind it is cell-based, human. The following applies: VP16 10 μM, 7 hrs; inhibitors 50 μM.
Experiment [7] has as its system caspase-2. Description: In cellula caspase-2 like activity (FAM-VDVAD-FMK FLICA; Western blotting) in SD-neurons. In kind it is cell-based, mouse.
A further experiment relates to cytochrome c. Description: Immunodetection of cytochrome c release in SD-neurons. It is filed as cell-based, mouse. The following applies: 24 hr-SD, inhibitors 100 μM.
A further experiment has as its system Bax. Description: Bax translocation to mitochondria in SD-neurons (Δ21 antibody immunostaining, subcellular fractionation). It is filed as cell-based, mouse. The following applies: 24 hr-SD, inhibitors 100 μM (furosemide 2 mM).
A further experiment has as its system Bax α. Description: Bax cleavage (p22 to p18) in SD-neurons by Western blotting. The conditions noted are these: 24 hr-SD, Western Blotting Δ21 antibody; VDVAD/QVDOPH 100 μM, ALLN/ALLM 25 μM, E64d 25-50 μM, lactacystin 1-10 μM, epoxomycin 10 μM. In kind it is cell-based, mouse. As to the method:
Neurons were lysed at RT in 25 mM Tris-HCl pH 7.4, 25 mM NaCl, 5 mM EDTA, 1% Triton X-100 supplemented by complete protease inhibitors cocktail (Roche). Protein concentration was determined using the Bio-Rad protein assay kit. Proteins (30 μg for caspase-2; 10 μg for Bax) were separated on 12.5% polyacrylamide gels and transferred to PVDF membranes (Amersham). […] The monoclonal anti-mouse caspase-2antibody (11B4, Alexis Biochemicals) was used at a 1:1000 dilution; polyclonal antibody (Δ21, Santa Cruz Biotechnology) raised against mouse Bax α deleted for the carboxy terminal 21 amino acids was used at a 1:200 dilution; polyclonal antibody (N20, Santa Cruz Biotechnology) raised against the amino terminus of Bax α (recognizing residues 11 to 30) was used at a 1:1000 dilution. Actin (42 kDa; Sigma; 1:5000) is used as an equal loading control. Immunoblotting of heat-shock protein 60 (HSP60) with a mouse monoclonal anti-HSP (Sigma; 1:400) was used to check the purity of the heavy membrane fraction enriched in mitochondria.
On the technique in general: Immunoblotting shows a protein as a band on a membrane.

Experiment [8] concerns primary cortical neurons. Description: Cortical neuron death induced by other stimuli (ionomycin, staurosporine, β-amyloid 25-35, MPTP, 3-NPA, SNP). It is filed as cell-based, mouse. The conditions noted are these: for protection against ionomycin-induced neuronal cell death: ionomycin 6 μM, 24 hrs.
Experiment [9] deals with Jurkat cells. The following applies: model of Robertson et al., 2002; cited from earlier work.

In the case of `COC(=O)CCC(NC(=O)C(CC(C)C)NC(=O)OCc1ccccc1)C(=O)NC(C(=O)NC(CC(=O)OC)C(=O)CF)C(C)O` (centres unmarked) [Z-LETD-FMK, N-benzyloxycarbonyl-Leu-Glu(Ome)-Thr-Asp(OMe)-fluoromethylketone] (Cbz-LE(OMe)TD(OMe)-CH2F; configuration not given here), the “survival / protection of SD-neurons against cell death (apoptosis hallmarks overall)” value with primary cortical neurons [1] is given as “failed to protect neurons from SD”. Also, the “caspase-3 like activity / activation in SD-neurons” value in the experiment with caspase-3 [2] is recorded as “failed also to block”. The “caspase-8 like activity in SD-neurons” value in the experiment on caspase-8 was “abolishing”. Also, in the experiment with caspase-9, the “caspase-9 like activity / activation in SD-neurons” value is reported as “failed also to block”. Further, the “inhibition of VDVAD-AMC cleavage by recombinant caspase-2” value in experiment [3] is recorded as “did not interfere highly; also recorded: not strongly inactivated”. Also, in the experiment on Jurkat cells [4], the “terminal nuclear alterations and PMP in VP16-treated Jurkat cells” value is given as “unable to prevent”; the “ΔΨm loss in VP16-treated Jurkat cells” value is “not abolished; also recorded: unable to prevent”. In addition, the “caspase-2 activation in VP16-treated Jurkat cells” value with caspase-2 [5] was “do not impair caspase-2 activation; also recorded: unable to prevent”. The “caspase-3 activation in VP16-treated Jurkat cells” value in the experiment with caspase-3 [6] is listed as “unable to prevent”.

Take `COC(=O)CC(NC(=O)C(C)NC(=O)C(NC(=O)C(CC(=O)OC)NC(=O)C(NC(=O)OCc1ccccc1)C(C)C)C(C)C)C(=O)CF` (stereo not drawn) [Z-VDVAD-FMK, N-benzyloxy-carbonyl-Val-Asp(Ome)-Val-Ala-Asp(OMe)-fluoromethylketone] (Cbz-VD(OMe)VAD(OMe)-CH2F; configuration not given here): the “survival / protection of SD-neurons against cell death (apoptosis hallmarks overall)” value is recorded as “abolish loss of ΔΨm loss as well as others hallmarks of apoptosis” with primary cortical neurons [1] and “abolishes these hallmarks of apoptosis” in the experiment on primary cortical neurons [1] (listed as VDVAD). For the same molecule, in the experiment on primary cortical neurons [1] (dose-response, inhibitor added at the initiation of 24 hr-SD), the “concentration required for optimal survival / higher protective effect” value was 100 µM. The “caspase-2 like activity / activation in SD-neurons” value in the experiment with caspase-2 [7] is “abolished; also recorded: abolish caspase-2 activation; also recorded: impair both Bax translocation and caspase-2 activity; also recorded: blocks”. For the same molecule, the “decrease of procaspase-2 protein content (processing into p14 form) in SD-neurons” value in the experiment with caspase-2 [7] (24 hr-SD, 100 μM, Western Blotting 11B4) is “prevents it”. The “caspase-3 like activity / activation in SD-neurons” value in the experiment with caspase-3 [2] is on record as “inhibited; also recorded: prevent downstream cytochrome c release-dependent activation”. The “caspase-9 like activity / activation in SD-neurons” value in the experiment with caspase-9 is reported as “inhibited; also recorded: prevent downstream cytochrome c release-dependent activation”. Besides, the “cytochrome c release from mitochondria in SD-neurons” value in the experiment with cytochrome c is reported as “efficiently blocked”; in the experiment on cytochrome c (listed as VDVAD) it was “reduce post-mitochondrial cytochrome c release”. Moreover, the “Bax translocation (relocation) to mitochondria in SD-neurons” value was “impair Bax translocation to mitochondria; also recorded: impair both Bax translocation and caspase-2 activity” with Bax; “prevented; also recorded: blocks; also recorded: prevents integration of p18 Bax into mitochondrial membrane” in the experiment with Bax (listed as VDVAD). Also, in the experiment on Bax α, the “Bax cleavage (p18 Bax) in SD-neurons” value was “prevent Bax cleavage”. In addition, the “cell death induced by staurosporine or ionomycin” value in the experiment on primary cortical neurons [8] (cortical neurons) is reported as “is not prevented”. Besides, the “protection against ionomycin-induced neuronal cell death” value with primary cortical neurons [8] was “provides no protective effect; also recorded: absence of protective effect”; with primary cortical neurons [8] (listed as VDVAD), “absence of protection”. In experiment [3], the “inhibition of VDVAD-AMC cleavage by recombinant caspase-2” value is listed as “blocked”. The “cell death induced by VP16 (survival)” value in the experiment on Jurkat cells [4] (Jurkat cells, VP16 7-8 hrs, inhibitors 25-100 μM pre-treatment, siRNA 24 hrs before) is on record as “protective effect; also recorded: prevents cell death”. The “terminal nuclear alterations and PMP in VP16-treated Jurkat cells” value in the experiment with Jurkat cells [4] is given as “mostly prevent”. For the same molecule, the “ΔΨm loss in VP16-treated Jurkat cells” value in the experiment on Jurkat cells [4] is “blocked ΔΨm loss”. Also, the “cytochrome c release and phosphatidylserine residues exposure in Jurkat T cells” value in the experiment on Jurkat cells [9] is “decreased partially”.
